Experimental data as given in patent US5298491A, “Derivatives of endogenous mediators, their salts, method of preparation, applications and compositions in which they are present” (priority 1990, dated 1994).
pIC50: −log10 of the molar value. Entries after “also recorded” stand apart in the source; their conditions may differ. Read-outs that look alike come from different tables or passages of the source.

What was measured:
5-HT1D sites [1] = biological target: T1, 5-HT1D sites (Macaca mulatta, UniProt F6SFA9); assay: Displacement of S-CM-G[125I]TNH2 binding with serotonin in monkey brain sections; parameters: species or system monkey (Macacca mulatta n.); settings: displacement of 0.02 nM S-CM-G[125I]TNH2, read-out: IC50 (concentration which inhibits 50% of the binding)
T1 construct: The right hemisphere is cut out and frozen by isopentane cooled in liquid nitrogen; from tissue; host or cells: rhesus monkey brain sections (right hemisphere, 10 μm, frozen), substantia nigra
Method: (§1) A male monkey (Macacca mulatta n.) weighing 8 kg was sacrificed by means of an overdose of barbiturates and exsanguination. […] The right hemisphere is cut out and frozen by isopentane cooled in liquid nitrogen. The block is stored at -20° C. 10 μm thick sections are prepared in a cryostat at -20° C. and placed on gelatin-coated slides (Segu et al., 1990, J. Neurosci. Meth., 31, 197). They are stored at -20° C. until required.
(§2) The sections are preincubated for 1 h at 4° C. in a Krebs solution (mM: NaCl, 118; KCl, 4.5; CaCl2, 1.2; MgCl2, […]; Tris, 15; pH 7.4) in order to remove the endogenous ligands. They are then incubated at 20° C. for 60 minutes in a solution containing 10^-5 M pargyline, 57 mM ascorbic acid, 10 g/l of bovine serum albumin and 0.02 nM S--CM-G[^125 I]TNH2, alone or in the presence of increasing concentrations of serotonin. Some of the sections are incubated under identical conditions except that the radioactive probe is replaced either with 2 nM [^3 H]5-HT, or with 2 nM [^3 H]5-HT in the presence of 100 nM 8-hydroxy-2-[di-N-propylamino]tetralin (8-OH-DPAT) and 100 nM mesulergin, or with 1 nM [^3 H]8-OH-DPAT. After rinsing 2 x for 1 minute in distilled water, the sections are dried.
(§3) The slides are affixed to a tritium-sensitive film for 8 days. […] The autoradiographs are quantified with a video system for image analysis (Segu et al., 1990).

[2] = tested on: receptor binding sites with a high affinity for serotonin (5-HT1); assay: Displacement, by the derivatives S-CM-R, of the high affinity binding of [3H]5-HT in rat brain sections; settings: 2 nM [3H]5-HT
From the text: The distribution of the receptor binding sites with a high affinity for serotonin (5-HT1) is heterogeneous in the central nervous system of the rat (Pazos and Palacios, Brain Research, 346, 1985, p. 205-230; Segu et al., Brain Research, 384, 1986, p. 205-217). Furthermore, the content of subtypes of 5-HT1 sites varies according to the anatomical structure in question.
The protocol for preparing the brain sections is common to all the studies which follow. The animals are decapitated after anaesthesia with chloral hydrate (400 mg/kg of gross weight). The brains are quickly removed from the skull and frozen by immersion in isopentane cooled by liquid nitrogen. 20 μm sections, prepared in a cryostat at -20° C., are mounted on gelatin-coated slides and stored at -20° C.
The sections are preincubated for 1 hour at 4° C. in a Krebs solution (NaCl 118 mM; KCl 4.8 mm; CaCl2 1.2 mM; MgCl2 1.2 mM; Tris-HCl 15 mM, pH 7.4) in order to remove the endogenous ligands.
1. Displacement, by the derivatives S-CM-R, of the high affinity binding of serotonin in rat brain sections
The incubations take place for 60 minutes at 20° C. in a Krebs solution containing 10 μM pargyline, 5.7.10^-4 M ascorbic acid, 2 nM [^3 H]5-HT (NEN, As=30 Ci/mmol) and increasing concentrations of derivatives S-CM-R. The non-specific binding is determined on homothetic sections under the same conditions, but in the presence of 10^-5 M 5-HT.
After incubation, the sections are rinsed three times for 20 seconds in distilled water and dried by a stream of hot air. The sections are affixed to a film (Amersham) for 6 weeks in the presence of a standard ([^3 H] microscale, Amersham). The films are developed for 6 minutes with Kodak D19, rinsed and fixed with AL4 (Kodak). Quantitative analysis of the autoradiographs is performed with an image analysis system (Segu et al., J. Neurosci. Methods, 31, 1990, p. 197-208).

[3] = Passage across the blood-brain barrier after intracardiac injection (brain autoradiography); format: in vivo, mice and guinea-pigs; settings: intracardiac injection; 10 minutes; conclusion
Method: 2 mice and 2 guinea-pigs are deeply anaesthetized with chloral hydrate (intraperitoneal injection of 0.12 ml of a 35% solution per 100 g of body weight).
The mice and guinea-pigs receive intracardiac injections of 200 μl and 1.5 ml, respectively, of S--CM-G[^125 I]TNH2.
After 10 minutes, the animals, still under deep anaesthesia, are decapitated and the brains are frozen and stored as indicated in Example 1.
Sections are prepared and autoradiography is carried out as described in Example 1.

5-HT1A sites = biological target: T2, 5-HT1A sites (Macaca mulatta, UniProt F7GIU0); assay: Labelling of hippocampus in monkey brain sections (autoradiography); format: binding, monkey (Macacca mulatta n.)
T2 sequence (F7GIU0 1-421): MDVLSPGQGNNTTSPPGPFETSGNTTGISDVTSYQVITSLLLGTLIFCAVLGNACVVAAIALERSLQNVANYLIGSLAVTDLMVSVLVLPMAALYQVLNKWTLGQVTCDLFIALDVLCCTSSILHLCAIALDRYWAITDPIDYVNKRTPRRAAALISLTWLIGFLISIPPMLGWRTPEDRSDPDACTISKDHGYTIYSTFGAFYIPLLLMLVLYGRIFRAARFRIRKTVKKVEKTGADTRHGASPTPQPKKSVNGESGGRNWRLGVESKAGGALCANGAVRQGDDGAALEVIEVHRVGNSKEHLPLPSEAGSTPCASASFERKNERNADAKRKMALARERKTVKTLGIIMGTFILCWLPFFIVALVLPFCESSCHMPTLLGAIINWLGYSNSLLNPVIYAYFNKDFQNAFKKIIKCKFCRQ
Method: as §1, §2, §3

5-HT1D sites [4] = assay: Labelling of substantia nigra in monkey brain sections (autoradiography); format: binding, monkey (Macacca mulatta n.); settings: 1 nM [3H]8-OH-DPAT
Method: (§4) A male monkey (Macacca mulatta n.) weighing 8 kg was sacrificed by means of an overdose of barbiturates and exsanguination. […] The right hemisphere is cut out and frozen by isopentane cooled in liquid nitrogen. The block is stored at -20° C. […] They are stored at -20° C. until required.
(§5) Some of the sections are incubated under identical conditions except that the radioactive probe is replaced either with 2 nM [^3 H]5-HT, or with 2 nM [^3 H]5-HT in the presence of 100 nM 8-hydroxy-2-[di-N-propylamino]tetralin (8-OH-DPAT) and 100 nM mesulergin, or with 1 nM [^3 H]8-OH-DPAT. After rinsing 2 x for 1 minute in distilled water, the sections are dried.
(§6) The slides are affixed to a tritium-sensitive film for 8 days. The film is developed for 6 minutes in D19, rinsed and fixed.

5-HT1D sites [5] = biological target: T1, 5-HT1D sites; assay: as above; format: binding, monkey (Macacca mulatta n.)
Method: as §4, §5, §6

[6] = 60 min at 20° C, single IC50, read-out: IC50 (displacement of specific binding of [3H]5-HT)
[7] = two-phase process, first site, read-out: IC50 for the first site (displacement of [3H]5-HT)
[8] = two-phase process, second site, read-out: IC50 for the second site (displacement of [3H]5-HT)

T1 sequence (F6SFA9 1-390): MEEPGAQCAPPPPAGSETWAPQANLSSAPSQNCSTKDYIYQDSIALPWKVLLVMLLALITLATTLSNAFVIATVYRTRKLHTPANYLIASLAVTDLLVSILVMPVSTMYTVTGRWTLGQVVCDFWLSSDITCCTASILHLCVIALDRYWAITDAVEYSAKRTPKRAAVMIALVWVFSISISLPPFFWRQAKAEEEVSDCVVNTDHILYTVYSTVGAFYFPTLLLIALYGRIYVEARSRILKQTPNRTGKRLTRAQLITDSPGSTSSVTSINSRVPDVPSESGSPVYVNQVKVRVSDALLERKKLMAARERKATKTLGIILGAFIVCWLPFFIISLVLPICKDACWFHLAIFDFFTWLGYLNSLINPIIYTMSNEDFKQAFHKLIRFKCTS

Compound | phases of displacement of [3H]5-HT specific binding [2] | pIC50 [2, 6] | pIC50 [2, 7] | pIC50 [2, 8] | other results
NCCc1c[nH]c2ccc(O)cc12 [5-HT, reference compound] | one-phase process | 8.70 |  |  | pIC50 (5-HT1D sites [1]): ~8.30
NCCc1c[nH]c2ccc(OCC(=O)O)cc12 [S--CM] |  | 6.00 |  |  | 
NCCc1c[nH]c2ccc(OCC(=O)NCC(=O)N[C@@H](Cc3ccc(O)cc3)C(N)=O)cc12 [S-CM-GTNH2, tryptamine-5-O-carboxymethylglycyltyrosinamide] | two-phase process |  | 7.70 | 6.40 | passage across the blood-brain barrier [3]: unable to pass through the blood-brain barrier
NCCc1c[nH]c2ccc(OCC(=O)N[C@@H](Cc3ccc(O)cc3)C(=O)NCC(N)=O)cc12 [S-CM-Tyr-GlyNH2] | two-phase process |  | 7.70 | 6.40 | 
CCCN(CCC)C1CCc2cccc(O)c2C1 (stereo not shown) [[^3 H]8-OH-DPAT, 8-hydroxy-2-[di-N-propylamino]tetralin] |  |  |  |  | labelling of the hippocampus (5-HT1A sites; 1 nM [3H]8-OH-DPAT): intense labelling; also recorded: showing the 5-HT1A sites exclusively located in the hippocampus; labelling of the substantia nigra (5-HT1D sites [4]): not the substantia nigra
[^3 H]5-HT [reference compound] |  |  |  |  | labelling of the hippocampus (5-HT1A sites; 2 nM [3H]5-HT): substantial labelling; also recorded: showing the total 5-HT1 sites in the hippocampus (H); labelling of the substantia nigra (5-HT1D sites [5]; 2 nM [3H]5-HT): substantial labelling; also recorded: showing the total 5-HT1 sites in the hippocampus (H) and the substantia nigra (SN); labelling of the substantia nigra (5-HT1D sites [5]; 2 nM [3H]5-HT in the presence of 100 nM 8-OH-DPAT and 100 nM mesulergin): strong reaction with the substantia nigra; also recorded: showing the 5-HT1B sites virtually exclusively located in "the substantia nigra
